From patent US20220323406A1, “METHODS AND COMPOSITIONS FOR DIFFERENTIATING STEM CELLS” (Massachusetts Institute of Technology, priority 2019, published 2022)

Key:
[1] = tested on: ENR+CD organoids (ISC to Paneth cell differentiation); assay: Primary screen: basal (non-stimulated) lysozyme secretion LYZ.NS, 2.5-D 384-well ENR+CD organoid differentiation; assay type: cell-based, mouse; conditions: primary screen; for Z.LYZ.NS: standard z score
Excerpt: (§1) High-throughput screening.

[2] = tested on: ENR+CD organoids (ISC to Paneth cell differentiation); assay: Primary screen: CCh-stimulated lysozyme secretion LYZ.S, 2.5-D 384-well ENR+CD organoid differentiation; assay type: cell-based, mouse; conditions: primary screen
Excerpt: as §1

[3] = tested on: ENR+CD organoids; assay: Primary screen: ATP (CellTiter-Glo 3D, CTG) cell number/viability, 2.5-D 384-well ENR+CD organoids; conditions: primary screen; for Z.CTG: standard z score;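 on all read-outs here: compounds given at plating and again on day 3 over a 6-day differentiation from ENR+CV stem-cell-enriched precursors, ATP measured on day 6, plate median as control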
[4] = dose 0.08 uM, FC relative to plate median
[5] = dose 0.40 uM, FC relative to plate median
[6] = dose 2.00 uM, FC relative to plate median
[7] = dose 10.00 uM, FC relative to plate median

SMILES | Dose.FC.LYZ.NS ([1]; dose 0.08 uM) [log2 fold change] | Z.LYZ.NS (standard z score) ([1]; dose 0.08 uM) | Dose.FC.LYZ.NS ([1]; dose 0.40 uM) [log2 fold change] | Z.LYZ.NS (standard z score) ([1]; dose 0.40 uM) | Dose.FC.LYZ.NS ([1]; dose 2.00 uM) [log2 fold change] | Z.LYZ.NS (standard z score) ([1]; dose 2.00 uM) | Dose.FC.LYZ.NS ([1]; dose 10.00 uM) [log2 fold change] | Z.LYZ.NS (standard z score) ([1]; dose 10.00 uM) | Dose.FC.LYZ.S ([2]; dose 0.08 uM) [log2 fold change] | Dose.FC.LYZ.S ([2]; dose 0.40 uM) [log2 fold change] | Dose.FC.LYZ.S ([2]; dose 2.00 uM) [log2 fold change] | Dose.FC.LYZ.S ([2]; dose 10.00 uM) [log2 fold change] | Dose.FC.CTG ([3]; dose 0.08 uM) [log2 fold change] | Dose.FC.CTG ([3]; dose 0.40 uM) [log2 fold change] | Dose.FC.CTG ([3]; dose 2.00 uM) [log2 fold change] | Dose.FC.CTG ([3]; dose 10.00 uM) [log2 fold change] | Dose.FC.LYZ.NS [1, 4] [log2 fold change] | Z.LYZ.NS ([1]; dose 0.08 uM) | Dose.FC.LYZ.NS [1, 5] [log2 fold change] | Z.LYZ.NS ([1]; dose 0.40 uM) | also measured
Oc1ncnc2[nH]ncc12 [Allopurinol] | 0.019 | 0.168 | −0.036 | −0.314 | −0.004 | −0.036 | −0.051 | −0.442 | 0.026 | −0.086 | −0.064 | −0.119 | 0.212 | −0.098 | −0.162 | −0.454 | – | – | – | – | –
C[C@@H](O[C@H]1OCCN(Cc2n[nH]c(=O)[nH]2)[C@H]1c1ccc(F)cc1)c1cc(C(F)(F)F)cc(C(F)(F)F)c1 [Aprepitant] | 0.097 | 0.840 | 0.061 | 0.532 | 0.005 | 0.043 | −0.090 | −0.780 | 0.115 | 0.107 | −0.007 | −0.119 | 0.313 | 0.403 | 0.145 | 0.051 | – | – | – | – | –
CCc1nc(N)nc(N)c1-c1ccc(Cl)cc1 [Pyrimethamine] | – | – | – | – | – | – | – | – | – | – | – | – | – | – | – | – | −0.005 | −0.041 | −0.018 | −0.160 | Dose.FC.LYZ.NS [1, 6]: −0.144 log2 fold change; Z.LYZ.NS ([1]; dose 2.00 uM): −1.255; Dose.FC.LYZ.NS [1, 7]: −0.138 log2 fold change; Z.LYZ.NS ([1]; dose 10.00 uM): −1.199; Dose.FC.LYZ.S [2, 4]: 0.042 log2 fold change; Dose.FC.LYZ.S [2, 5]: −0.026 log2 fold change; Dose.FC.LYZ.S [2, 6]: −0.162 log2 fold change; Dose.FC.LYZ.S [2, 7]: −0.282 log2 fold change; Dose.FC.CTG [3, 4]: 0.007 log2 fold change; Dose.FC.CTG [3, 5]: −0.259 log2 fold change; Dose.FC.CTG [3, 6]: −0.416 log2 fold change; Dose.FC.CTG [3, 7]: −0.620 log2 fold change
CCOC(=O)c1ccc(N2NC(=O)/C(=C/c3ccc([N+](=O)[O-])o3)C2=O)cc1 [PYR-41] | – | – | – | – | – | – | – | – | – | – | – | – | – | – | – | – | 0.150 | 1.305 | 0.089 | 0.777 | Dose.FC.LYZ.NS [1, 6]: 0.065 log2 fold change; Z.LYZ.NS ([1]; dose 2.00 uM): 0.568; Dose.FC.LYZ.NS [1, 7]: 0.099 log2 fold change; Z.LYZ.NS ([1]; dose 10.00 uM): 0.861; Dose.FC.LYZ.S [2, 4]: 0.193 log2 fold change; Dose.FC.LYZ.S [2, 5]: 0.076 log2 fold change; Dose.FC.LYZ.S [2, 6]: 0.049 log2 fold change; Dose.FC.LYZ.S [2, 7]: 0.129 log2 fold change; Dose.FC.CTG [3, 4]: 0.255 log2 fold change; Z.CTG ([3]; dose 0.08 uM): 0.609; Dose.FC.CTG [3, 5]: 0.319 log2 fold change; Z.CTG ([3]; dose 0.40 uM): 0.762; Dose.FC.CTG [3, 6]: 0.161 log2 fold change; Z.CTG ([3]; dose 2.00 uM): 0.385; Dose.FC.CTG [3, 7]: 0.096 log2 fold change; Z.CTG ([3]; dose 10.00 uM): 0.229
Cc1cc2c(C(C)C)c(O)c(O)c(C=O)c2c(O)c1-c1c(C)cc2c(C(C)C)c(O)c(O)c(C=O)c2c1O [AT101] | −0.049 | −0.426 | −0.068 | −0.592 | −0.036 | −0.311 | −0.052 | −0.452 | 0.004 | −0.013 | −0.085 | −0.061 | −0.198 | 0.019 | −0.216 | −0.056 | – | – | – | – | –
